Patent US20070122377A1, “Compositions and methods of treatment” (priority 2003, published 2007)

Assays:
[1] = tested on: U937 cells; experiment: IL-10 ELISA in U937 cells, prostaglandins in presence and absence of rolipram (Examples 5 and 6, FIGS. 7 and 8); format: cell-based, human
Procedure: U 937 cells were grown in RPP (PAA Laboratories) medium with 10% fetal calf serum added (PAA Laboratories). 2×10^6 cells per flask were treated with prostaglandin E2 at 10^−6 Molar or with Rolipram (4×10^−6) for 24 hours. Medium was removed at 20 hours and analysed by ELISA. A capture antibody (Pharmingen) was coated onto 96 well plates and culture medium was added each well. A standard curve was created with recombinant IL-10 protein. After incubation and washing, a biotin labelled monoclonal antibody (Pharmingen) was added and following incubation and washing, peroxidase labelled streptavidin was added. After washing a tetramethyl benzidine substrate was added and colour developed in proportion to IL-10 in the original sample/standard. Colour was read using a plate photometer (Labsystems, Multiskan). Mean concentrations (N=3) in controls with no lipopolysaccharide (LPS) were 38.2 pg/ml and in the presence of LPS (100 nM) they were 43.9 […].
The effect of PGE1, PGE2, 19 hydroxy PGE1 and 19 hydroxy PGE2 on the stimulation of IL-10 in the presence and absence of rolipram was investigated as described above in Example 5. IL-10 levels were measured using an ELISA assay (R&D Ltd, Oxford). Measurement was performed according to the manufacturer's instructions.

[2] = tested on: U937 cells; experiment: phosphodiesterase IV-b mRNA in U937 cells (Example 7, FIG. 9); format: cell-based, human; conditions: four hours of incubation; PGE 1×10^-6, 19-hydroxy PGE2 5×10^-6
Procedure: After the incubation (20 hours), cells were pelleted and the mRNA was extracted with Tri-reagent (Sigma, Poole, UK). Total RNA was obtained by addition of chloroform and subsequent isopropanol precipitation. RNA was reverse transcribed with reverse transcriptase (Applied Biosystems) and random hexamers (Applied Biosystems). Probes and primers for IL-10 and IL-12 (p35) were designed using Primer Express (Applied Biosystems) and were as follows:
Template was amplified in a Taqman 7700 machine for 40 cycles using FAM/TAMRA dyes on the probe. The Applied Biosystems kit was used to amplify and detect ribosomal (18S) RNA (using VIC/TAMRA dyes) as an internal control in the same reaction tube. After 40 cycles the Ct (related to cycle number at which signal appears) for the FAM and the 18S (VIC) were recorded and […] relative quantitation was achieved using the formula 2^−ΔΔCt where Δ refers to the difference between the FAM and VIC signal related to an standard comparator included in each run.
The mRNA for phosphodiesterase IV-b was measured as described in Example 5 above. mRNA was extracted after four hours of incubation. The concentration of the PGE was 1×10^−6 and that of the 19-hydroxy PGE2 was 5×10^−6. The following primers and Taqman probe were used for quantitation of PDE IV b mRNA.

[3] = tested on: U937 cells; experiment: Release of IL-10 protein from U937 monocytes in response to PGE and GMCSF (Example 3, FIG. 4); format: cell-based, human
Procedure: Cells were treated for 4 hours with the agents indicated below the graph, washed to remove the treatment and incubated for a further 20 hours before the medium was assayed for IL-10. PGE refers to prostaglandin E2, and GM refers to GMCSF.
U937 cells were grown in RPMI (PAA Laboratories) medium with 10% foetal calf serum (PAA Laboratories) added.

[4] = tested on: type IV PDE; conditions: cited from earlier work; for IC50: type IV PDE selective inhibitor
[5] = tested on: U937 cells; experiment: IL-10 and TNFα mRNA in U937 cells after differentiating agents (Example 9, FIG. 13); format: cell-based, human
Procedure: U937 (human monocyte cell line) cells were grown in RPMI (PAA Laboratories) medium with 10% fetal calf serum added (PAA Laboratories). Cells were treated with prostaglandin E2 at 10^−6 Molar, Rolipram 10^−6 Molar, Forskolin 50×10^−6 Molar with or without GMCSF at 5 ng/ml for 48 hours. Cells were pelleted and the mRNA was extracted with Tri reagent (Sigma, Poole, UK). Total RNA was obtained by addition of chloroform and subsequent isopropanol precipitation. RNA was reverse transcribed with reverse transcriptase (Applied Biosystems) and random hexamers (Applied Biosystems). Probes and primers for amplification and detection of IL-10 were designed using Primer Express (Applied Biosystems) and are as follows:
As for Example 4 but MRNA for TNFα is also included.
Data is shown as the ratio of IL-10 mRNA/TNFα mRNA. P=PMA=Phorbol myristoyl acetate; F=Fsk=Forskolin g=GMCSF, C=vehicle control.

[6] = tested on: PDE; conditions: non-specific PDE inhibitor; cited from earlier work
[7] = cited from earlier work

Molecule: CCCCC[C@H](O)/C=C/[C@H]1[C@H](O)CC(=O)[C@@H]1C/C=C\CCCC(=O)O [PGE, prostaglandin E2]
- stimulation of IL-10 in the presence of a PDE inhibitor [1]: increased strikingly
- PDE activity / PDE message (phosphodiesterase IV-b mRNA) [2]: increase
- stimulation of IL-10 in the presence of GMCSF [3]: increased strikingly

Molecule: COc1ccc(C2CNC(=O)C2)cc1OC1CCCC1 (stereo not shown) [rolipram, 4-[3-cyclopentyloxy-4-methoxyphenyl]-2-pyrrolidinone]
- IC50 [4]: 800 nM

Molecule: CCCCOc1cc(CC2CNC(=O)N2)ccc1OC (stereo not shown) [Ro-20-1724, 4-[3-butoxy-4-methoxybenzyl]-2-imidazolidinone]
- IC50 [4]: 2000 nM

Molecule: Cn1c(=O)c2[nH]cnc2n(C)c1=O [theophylline]
- times less effective than rolipram ([4]; non-selective inhibitor compared with type IV selective rolipram): 30 times

Molecule: CCCCCCCCCCCCCC(=O)O[C@@H]1[C@@H](C)[C@@]2(O)[C@@H](C=C(CO)C[C@]3(O)C(=O)C(C)=C[C@@H]23)[C@@H]2C(C)(C)[C@]12OC(C)=O [PMA, Phorbol myristoyl acetate]
- IL-10 mRNA ([5]; PMA 2×10^-7 M as differentiating agent): increased
- TNFα mRNA ([5]; differentiation with the agent): increased

Molecule: CC(C)Cn1c(=O)n(C)c(=O)c2[nH]cnc21 [IBMX, 3-isobutyl-1-methylxanthine]
- IC50 [6]: 2 to 50 µM

Molecule: 19-hydroxy PGE2
- stimulation of IL-10 in the presence of a PDE inhibitor [1]: increased strikingly
- PDE activity / PDE message (phosphodiesterase IV-b mRNA) [2]: increase
- stimulation of IL-10 in the presence of GMCSF [3]: increased strikingly

B1: GM-CSF: Murine Granulocyte macrophage colony stimulating factor from Peprotech, catalog number 315-03 (protein, UniProt P01587 18-141, looked up)
Granulocyte-macrophage …: APTRSPITVTRPWKHVEAIKEALNLLDDMPVTLNEEVEVVSNEFSFKKLTCVQTRLKIFEQGLRGNFTKLKGALNMTASYYQTYCPPTPETDCETQVTTYADFIDSLKTFLTDIPFECKKPGQK
- solubility in aqueous solution [7]: Freely soluble
